# Measurements: ChEMBL document CHEMBL3526069, “Human pharmacokinetic prediction of UDP-glucuronosyltransferase substrates with an animal scale-up approach” (Drug Metab Dispos, 2011)
# Legend:
# in vitro [1] = settings: rhesus monkey, plasma
# Description: Fraction unbound in monkey plasma by ultracentrifugation method
# in vitro [2] = settings: dog
# Description: Ratio of drug level in blood to plasma in dog
# in vitro [3] = settings: rat, plasma
# Description: (§1) Fraction unbound in rat plasma by ultracentrifugation method
# in vitro [4] = settings: human
# Description: Ratio of drug level in blood to plasma in human
# in vitro [5] = settings: rhesus monkey
# Description: Ratio of drug level in blood to plasma in monkey
# [6] = Drug metabolism in gallbladder-cannulated mouse assessed as glucuronide concentration in bile and urine at 0.2 mg/kg, iv up to 24 hrs by LC/MS/MS analysis; type: ADME, organism-based; design: dose 0.2 mg/kg, route intravenous; settings: in vivo
# [7] = Drug metabolism in bile duct-cannulated dog assessed as glucuronide concentration in bile and urine at 0.2 mg/kg, iv up to 24 hrs by LC/MS/MS analysis; type: ADME, organism-based, Canis lupus familiaris; design: dose 0.2 mg/kg, route intravenous; settings: in vivo
# in vitro [8] = settings: mouse
# Description: Ratio of drug level in blood to plasma in mouse
# in vitro [9] = settings: rat
# Description: Ratio of drug level in blood to plasma in rat
# [10] = Drug metabolism in bile duct-cannulated cynomolgus monkey assessed as glucuronide concentration in bile and urine at 0.2 mg/kg, iv up to 24 hrs by LC/MS/MS analysis; settings: in vivo
# clinical [11] = settings: human, in vivo
# in vitro [12] = settings: human, plasma
# Description: (§2) Fraction unbound in human plasma by ultracentrifugation method
# in vitro [13] = settings: mouse, plasma
# Description: Fraction unbound in mouse plasma by ultracentrifugation method
# [14] = Drug metabolism in bile duct-cannulated rat assessed as glucuronide concentration in bile and urine at 0.2 mg/kg, iv up to 24 hrs by LC/MS/MS analysis; type: ADME, organism-based; design: dose 0.2 mg/kg, route intravenous; settings: in vivo
# in vitro [15] = settings: dog, plasma
# Description: Fraction unbound in dog plasma by ultracentrifugation method
# [16] = Plasma clearance in po dosed human
# clinical [17] = settings: human, in vivo; remark: listed apart in the source
# Description: (§3) Volume of distribution at steady state in human
# [18] = Plasma clearance in human
# [19] = Drug metabolism in human assessed as glucuronide concentration in urine
# Plasma [20] = settings: human
# Description: as §2
# Plasma [21] = settings: rat
# Description: as §1
# Homo sapiens [22] = species on record: Homo sapiens; settings: in vivo
# Description: as §3
# Homo sapiens [23] = species on record: Homo sapiens; settings: in vivo; remark: listed apart in the source
Structure (SMILES),fraction unbound (in vitro [1]),blood plasma ratio (in vitro [2]),fraction unbound (in vitro [3]),blood plasma ratio (in vitro [4]),blood plasma ratio (in vitro [5]),Fm [6],Fm [7],blood plasma ratio (in vitro [8]),blood plasma ratio (in vitro [9]),Fm [10],half-life (clinical [11]),fraction unbound (in vitro [12]),fraction unbound (in vitro [13]),Fm [14],fraction unbound (in vitro [15]),CL/F ([16]; plasma),Vd (clinical [17]),Fm [19],clearance ([18]; plasma),other results
CCCc1nc2c(C)cc(-c3nc4ccccc4n3C)cc2n1Cc1ccc(-c2ccccc2C(=O)O)cc1,0.008,1.18,0.007,1.24,1.16,0.118,0.99,0.54,1.25,0.47,437 min,0.003,0.071,0.396,0.018,17.8 mL/min/kg,,,,
O=C([O-])Cc1ccccc1Nc1c(Cl)cccc1Cl.[Na+] [DICLOFENAC SODIUM],0.005,1.01,0.006,0.71,1.01,0.261,0.522,0.67,1.57,0.29,43.6 min,0.003,0.005,0.065,0.003,,0.22 L/kg,0.15,,clearance ([18]; in vivo): 3.5 mL/min/kg; CL/F ([16]; in vivo): 6.48 mL/min/kg
NS(=O)(=O)c1cc(C(=O)O)c(NCc2ccco2)cc1Cl [FUROSEMIDE],,,,,,0.005,0.17,,,0.671,,,,0.052,,,,0.14,,
Cc1ccc(C)c(OCCCC(C)(C)C(=O)O)c1 [GEMFIBROZIL],0.007,0.64,0.01,0.75,0.67,0.173,0.69,0.68,0.83,0.35,456 min,0.005,0.041,0.366,0.004,,1.11 L/kg,0.4,,clearance ([18]; in vivo): 1.7 mL/min/kg; CL/F ([16]; in vivo): 1.73 mL/min/kg
CN(C)CCCN1c2ccccc2CCc2ccccc21.Cl [IMIPRAMINE HYDROCHLORIDE],0.03,,,,,,0.005,,,0.04,642 min,0.104,0.063,0.014,,,12 L/kg,0.1,,
COc1ccc2c(c1)c(CC(=O)O)c(C)n2C(=O)c1ccc(Cl)cc1 [INDOMETHACIN],0.005,0.65,0.004,0.98,1.06,0.001,0.01,0.46,0.97,0.94,406 min,,0.009,0.004,0.005,1.58 mL/min/kg,0.925 L/kg,0.217,1.58 mL/min/kg,Fu (Plasma [20]): 0.1
CC(C(=O)O)c1cccc(C(=O)c2ccccc2)c1 (stereo not drawn) [KETOPROFEN],,,,,,0.01,0.163,,,,,,,,,,,,,
C[C@H]1COc2c(N3CCN(C)CC3)c(F)cc3c(=O)c(C(=O)O)cn1c23.Cl [LEVOFLOXACIN HYDROCHLORIDE],0.871,,0.826,,,0.229,0.061,,,0.82,438 min,0.784,,0.644,0.922,1.9 mL/min/kg,1.2 L/kg,< 0.015,1.9 mL/min/kg,
O=C1Nc2ccc(Cl)cc2C(c2ccccc2Cl)=NC1O (stereo not drawn) [LORAZEPAM],0.103,0.77,0.09,1.14,0.87,0.436,0.785,0.92,1.09,0.53,744 min,0.057,0.158,0.085,0.073,1.21 mL/min/kg,,0.81,1.21 mL/min/kg,
COc1c(C)c2c(c(O)c1C/C=C(\C)CCC(=O)O)C(=O)OC2 [MYCOPHENOLIC ACID],0.011,0.75,0.004,0.69,0.97,0.966,0.99,0.81,0.94,0.54,996 min,,0.028,0.096,0.003,3.54 mL/min/kg,4.75 L/kg,0.9,3.31 mL/min/kg,Fu (Plasma [20]): 0.003
O=C(c1ccc(OCCN2CCCCC2)cc1)c1c(-c2ccc(O)cc2)sc2cc(O)ccc12 [RALOXIFENE],0.004,,,,,0.243,0.196,,,0.38,,0.002,0.006,0.214,0.003,,,0.9,14.7 mL/min/kg,Fu (Plasma [21]): 0.004; Vdss (Homo sapiens [22]): 47 L/kg; t1/2 (Homo sapiens [23]): 36.9 h
Cc1cn([C@H]2C[C@H](N=[N+]=[N-])[C@@H](CO)O2)c(=O)[nH]c1=O [ZIDOVUDINE],,,0.734,,,0.034,0.134,,,0.08,49.9 min,0.695,0.896,0.02,0.827,33.3 mL/min/kg,,0.85,,
